# Data reported in US20250327097A1, “ORGANISMS PRODUCING LESS CROTONIC ACID” (Global Bioenergies, priority 2021, published 2025).
# B1: FabV: purified FabV from Treponema denticola (EC 1.3.1.44), Uniprot Q73Q47 (protein, listed as Treponema denticola)
# chain: MIVKPMVRNNICLNAHPQGCKKGVEDQIEYTKKRITAEVKAGAKAPKNVLVLGCSNGYGLASRITAAFGYGAATIGVSFEKAGSETKYGTPGWYNNLAFDEAAKREGLYSVTIDGDAFSDEIKAQVIEEAKKKGIKFDLIVYSLASPVRTDPDTGIMHKSVLKPFGKTFTGKTVDPFTGELKEISAEPANDEEAAATVKVMGGEDWERWIKQLSKEGLLEEGCITLAYSYIGPEATQALYRKGTIGKAKEHLEATAHRLNKENPSIRAFVSVNKGLVTRASAVIPVIPLYLASLFKVMKEKGNHEGCIEQITRLYAERLYRKDGTIPVDEENRIRIDDWELEEDVQKAVSALMEKVTGENAESLTDLAGYRHDFLASNGFDVEGINYEAEVERFDRI
# modifications: FabV
# notes: purified FabV from Treponema denticola (EC 1.3.1.44), Uniprot Q73Q47
# B2: CdFdc-UbiX: Fdc homologue, Uniprot B9WJ66, co-expressed with UbiX in pETDuet (protein, UniProt B9WJ66 1-513, looked up)
# Ferulic acid decarboxylase 1: MSLNPALKFRDFIQVLKNEGDLIEIDTEVDPNLEVGAITRKAYENKLAAPLFNNLKQDPENIDPKNLFRILGCPGGLRGFGNDHARIALHLGLDSQTPMKEIIDFLVANRNPKKYIPPVLVPNDQSPHKKHHLTKEQIDLTKLPVPLLHHGDGGKFIQTYGMWVLQTPDKSWTNWSIARGMVHDSKSITGLVINPQHVKQVSDAWVAAGKGDKIPFALCFGVPPAAILVSSMPIPDGATEAEYIGGLCNQAVPVVKCETNDLEVPADCEMVFEGYLDRDTLVREGPFGEMHGYCFPKDHHTQPLYRVNHISYRDQAIMPISNPGLCTDETHTLIGGLVSAETKYLISQHPVLSKIVEDVFTPYEAQALWLAVKINTHELVKLKTNAKELSNLVGDFLFRSKECYKVCSILHEIILVGDDIDIFDFKQLIWAYTTRHTPVQDQLYFDDVKPFALAPFASQGPLIKTRQGGKCVTTCIFPKQFTDPDFEFVTCNFNGYPEEVKNKISQNWDKYYK
# modifications: co-expressed with UbiX
# notes: Fdc homologue, Uniprot B9WJ66, co-expressed with UbiX in pETDuet
# B3: ScFdc-UbiX: Fdc homologue, Uniprot Q03034, co-expressed with UbiX in pETDuet (protein, UniProt Q03034 1-503, looked up)
# Ferulic acid decarboxylase 1: MRKLNPALEFRDFIQVLKDEDDLIEITEEIDPNLEVGAIMRKAYESHLPAPLFKNLKGASKDLFSILGCPAGLRSKEKGDHGRIAHHLGLDPKTTIKEIIDYLLECKEKEPLPPITVPVSSAPCKTHILSEEKIHLQSLPTPYLHVSDGGKYLQTYGMWILQTPDKKWTNWSIARGMVVDDKHITGLVIKPQHIRQIADSWAAIGKANEIPFALCFGVPPAAILVSSMPIPEGVSESDYVGAILGESVPVVKCETNDLMVPATSEMVFEGTLSLTDTHLEGPFGEMHGYVFKSQGHPCPLYTVKAMSYRDNAILPVSNPGLCTDETHTLIGSLVATEAKELAIESGLPILDAFMPYEAQALWLILKVDLKGLQALKTTPEEFCKKVGDIYFRTKVGFIVHEIILVADDIDIFNFKEVIWAYVTRHTPVADQMAFDDVTSFPLAPFVSQSSRSKTMKGGKCVTNCIFRQQYERSFDYITCNFEKGYPKGLVDKVNENWKRYGYK
# modifications: co-expressed with UbiX
# notes: Fdc homologue, Uniprot Q03034, co-expressed with UbiX in pETDuet
# B4: UbiX alone: UbiX (E. coli K-12) expressed without Fdc, control (protein, UniProt P0AG03 1-189, looked up)
# Flavin prenyltransferase UbiX: MKRLIVGISGASGAIYGVRLLQVLRDVTDIETHLVMSQAARQTLSLETDFSLREVQALADVTHDARDIAASISSGSFQTLGMVILPCSIKTLSGIVHSYTDGLLTRAADVVLKERRPLVLCVRETPLHLGHLRLMTQAAEIGAVIMPPVPAFYHRPQSLDDVINQTVNRVLDQFAITLPEDLFARWQGA
# How the values were obtained:
# TaFdcV = experiment: Acid binding and cycloadduct formation with TaFdcV (UV-Vis, ESI-MS, co-crystallization)
# Procedure: TaFdcV (500 μL, 0.45 mM protein, 25 mM HEPES, 150 mM KCl, pH 6.8) was incubated with crotonic or 2-butynoic acid. The formation of the prFMN-crotonic acid cycloadduct was followed by UV-Vis spectroscopy and additional acid were added until full conversion (complete loss of the 380 nm peak). The protein was desalted to 25 mM HEPES, 150 mM KCl, pH 6.8 and plated for crystal trials.
# TaFdc = experiment: Acid binding and cycloadduct formation with TaFdc wild-type (UV-Vis)
# [1] = test system: ferulic acid decarboxylase (FDC); experiment: Inhibition of ferulic acid decarboxylase; format: biochemical
# From the text: In recombinant organisms or microorganisms, 3-methylcrotonic acid, the substrate of FDC, can be produced from acetyl-CoA in a multistep enzymatic process. The final conversion of 3-methylcrotonic acid into isobutene can be carried out in the same recombinant organism or microorganism that has been used for the production of 3-methylcrotonic acid. In such a one-step process, it is required that the recombinant organism or microorganism encodes the enzyme FDC. Alternatively, isobutene may be produced from 3-methylcrotonic acid in a two-step process. For that, a fermentation culture medium of a recombinant organism or microorganism comprising the produced 3-methylcrotonic acid may be contacted with a recombinant organism or microorganism encoding the enzyme FDC in an in vivo or in vitro biotransformation reaction. In an alternative two-step process, a first recombinant organism or microorganism may be used to convert acetyl-CoA into 3-hydroxyisovaleric acid and the produced 3-hydroxyisovaleric acid may then be converted into isobutene by a second recombinant organism or microorganism (via 3-methylcrotonic acid and FDC).
# AnFdc = AnFdc (Aspergillus niger, UniProt A2QHE5); experiment: Quantitative GC assay of pentene production from hexenoic acid; format: biochemical
# AnFdc wild-type = AnFdc wild-type (Aspergillus niger, UniProt A2QHE5); experiment: Crotonic acid binding by UV-Vis spectra, AnFdc wild-type; conditions: 2-h incubation
# AnFdcII = AnFdcII (Aspergillus niger, UniProt A2QHE5, P438W/R435P/T395M); format: binding
# crotonyl-CoA = experiment: Coupled assay positive control: purified FabV with crotonyl-CoA; format: biochemical, Treponema denticola; conditions: 1 mM crotonyl-CoA, 100 μg/ml FabV, 18 h at 34° C.
# Procedure: The acid-CoA ligases were tested as purified enzymes with a coupled assay using purified FabV from Treponema denticola (EC 1.3.1.44) (Uniprot Accession No: Q73Q47) (to convert crotonyl-CoA to butyryl-CoA). The reaction was carried out as follows: 50 μg/ml acid-CoA ligase and 100 μg/ml FabV with a buffered solution containing 100 mM Tris-HCl pH7.5, 20 mM NaCl, 100 mM KCl, 2 mM MgCl2, 1 mM crotonic acid (TCI chemicals), 1 mM ATP (Sigma-Aldrich), 1 mM coenzyme A (Sigma-Aldrich) and 1 mM NADH (Sigma-Aldrich) were incubated 18 h at 34° C. in a water bath, and the reaction was stopped with acetonitrile. […] The produced butyryl-CoA (Sigma-Aldrich) and the consumed crotonic acid (TCI chemicals) were quantified by HPLC with a calibration curve. The samples were injected on a Zorbax SB-Aq column (Agilent) at 30° C. and eluted with 8.4 mM H2SO4 and a gradient of acetonitrile.
# The CoA-transferase was tested as purified enzyme with a coupled assay using purified FabV from Treponema denticola (EC 1.3.1.44) (Uniprot Accession No: Q73Q47) (to convert crotonyl-CoA to butyryl-CoA). […] The produced butyryl-CoA (Sigma-Aldrich) and the consumed crotonic acid (TCI chemicals) were quantified by HPLC with a calibration curve. […]
# 3-methylcrotonic acid = experiment: Initial in vivo screening of Fdc homologues co-expressed with UbiX for 3-methylcrotonic acid decarboxylation (isobutene by GC); format: cell-based, E. coli; conditions: isobutene in headspace from 10 mM 3-methylcrotonic acid; Fdc (MCS1, N-terminal 6His-tag) and UbiX (MCS2) in pETDuet
Molecule,"binding to TaFdcV, UV-Vis spectrum after desalting (TaFdcV)",inhibition of FDC [1],ppm Average (3-methylcrotonic acid),also measured
CC#CC(=O)O [2-butynoic acid],covalent inhibitory adduct is formed,–,–,state of the adduct by ESI-MS and co-crystallization (TaFdcV): stalls as Int1
CCCC=CC(=O)O [2-hexenoic acid],irreversibly binds,irreversible inhibitors,–,"binding to TaFdc, UV-Vis spectrum after desalting (TaFdc): irreversibly binds; pentene production from hexenoic acid (AnFdc): limited to a single turnover"
CCC=CC(=O)O [2-pentenoic acid],irreversibly binds,irreversible inhibitors,–,"binding to TaFdc, UV-Vis spectrum after desalting (TaFdc): irreversibly binds"
C/C=C/C(=O)O [crotonic acid],covalent inhibitory adduct is formed,irreversible inhibitors,–,binding by UV-Vis spectra (AnFdc wild-type): cannot be detected; binding by UV-Vis spectra (AnFdcII): readily bind the inhibitor
B1,–,–,–,conversion of crotonyl-CoA to butyryl-CoA (crotonyl-CoA): could convert all of it to butyryl-CoA
B2,–,–,4.8 ppm,–
B3,–,–,17.6 ppm,–
B4,–,–,3.3 ppm,–
